Square brackets hold non-standard residues; d marks the D form. Side chains are listed from the residue outwards. Peptide text beside a SMILES is read from it. * marks the point of attachment. Phe(4-NH2) = Nc1ccc(C[C@H](N)C(=O)O)cc1; Tos = Cc1ccc(S(=O)(=O)*)cc1; Boc = CC(C)(C)OC(=O)*; Cam = NC(=O)C*

For data set [1], the system named is Experimental Autoimmune (or Allergic) Encephalomyelitis (“EAE”). Nature of the data set: In vivo evaluation: Experimental Autoimmune Encephalomyelitis (EAE) model. Further details: species or system rats or guinea pigs. To be noted: treatment began on Day 8; 10 mg/kg to 200 mg/kg, bid, for five days; SC, PO or IP.

By melting point is commonly meant the temperature of the solid-liquid transition. Compound `COC(=O)[C@H](Cc1ccc(OCCN2CCC(O)(c3ccccc3)CC2)cc1)NC(=O)[C@@H]1CCCN1S(=O)(=O)c1ccc(C)cc1` came in with a melting point of 122 to 123 °C. Consider `Cc1ccc(S(=O)(=O)N2CCC[C@H]2C(=O)N[C@@H](Cc2ccc(NC(=O)[C@@H](C)NC(=O)OC(C)(C)C)cc2)C(=O)O)cc1` [Example 5, N-(Toluene-4-sulfonyl)-L-prolyl-4-[(N-tert-butoxylcarbonyl-D-alanyl)amino]-L-phenylalanine] (Tos-Pro-[Phe(4-NH2)]([dA-Boc])-OH), for which the “active in EAE model (delayed the onset of symptoms, e.g., clinical scores no greater than 2 or slowed body weight loss as compared to the control)” value in data set [1] is given as “active”. On to `Cc1ccc(S(=O)(=O)N2CCC[C@H]2C(=O)N[C@@H](Cc2ccc(-c3ccccc3C(=O)O)cc2)C(=O)O)cc1` [Example 12, N-(Toluene4-sulfonyl)-L-prolyl-4-[2-(carboxy)phenyl]-L-phenylalanine], for which the “active in EAE model (delayed the onset of symptoms, e.g., clinical scores no greater than 2 or slowed body weight loss as compared to the control)” value in data set [1] is listed as “active”. For the compound `COC(=O)[C@H](Cc1ccc(N(CCCN(C)C)S(=O)(=O)C(F)(F)F)cc1)NC(=O)[C@@H]1CCCN1S(=O)(=O)c1ccc(C)cc1` [Example 16, N-(Toluene-4-sulfonyl)-L-prolyl-L-4-{N-[3-(N,N-dimethylamino)propyl]-N-[trifluoromethanesulfonyl]amino}-L-phenylalanine Methyl Ester], the melting point lay in the range of 45 to 55 °C. Turning to `Cc1ccc(S(=O)(=O)N2CCC[C@H]2C(=O)N[C@@H](Cc2ccc(OCCCN(C)C)cc2)C(=O)O)cc1` [Example 18, N-(Toluene-4-sulfonyl)-L-prolyl-4-[3-(N,N-dimethylamino)propoxy]-L-phenylalanine], in data set [1], the “active in EAE model (delayed the onset of symptoms, e.g., clinical scores no greater than 2 or slowed body weight loss as compared to the control)” value is listed as “active”. `Cc1ccc(S(=O)(=O)N2CCC[C@H]2C(=O)N[C@@H](Cc2ccc(OCCN(C(C)C)C(C)C)cc2)C(=O)O)cc1` [Example 23, N-(Toluene-4-sulfonyl)-L-prolyl-4-[2-(N,N-diisopropylamino)ethoxy]-L-phenylalanine] yielded a melting point of 121 to 124 °C.

Turning to `CN(C)CCCOc1ccc(C[C@H](NC(=O)[C@@H]2CCCN2S(=O)(=O)c2cccs2)C(=O)O)cc1` [Example 24, N-(Thiophene-2-sulfonyl)-L-prolyl-4-[3-(N,N-dimethylamino)propoxy]-L-phenylalanine], the melting point was > 200 °C. The compound `CCN(CC)CCOc1ccc(C[C@H](NC(=O)[C@@H]2CCCN2S(=O)(=O)c2ccc(C)cc2)C(=O)O)cc1` [Example 26, N-(Toluene-4-sulfonyl)-L-prolyl-4-[2-(N,N-diethylamino)ethoxy]-L-phenylalanine] gave a melting point of 105 to 109 °C.

On to `CN(C)CCCOc1ccc(C[C@H](NC(=O)[C@@H]2CCCN2S(=O)(=O)c2cc(Cl)sc2Cl)C(=O)O)cc1` [Example 27, N-(2,5-Dichlorothiophene-3-sulfonyl)-L-prolyl-4-[3-(N,N-dimethylamino)propoxy]-L-phenylalanine], for which the melting point was > 200 °C. Regarding `Cc1ccc(S(=O)(=O)N2CCC[C@H]2C(=O)N[C@@H](Cc2ccc(OCCN3CCCCC3)cc2)C(=O)O)cc1` [Example 46, N-(Toluene-4-sulfonyl)-L-prolyl-4-[2-(piperidin-1-yl)ethoxy]-L-phenylalanine], the melting point is 102 to 106 °C.

`Cc1ccc(S(=O)(=O)N2CCC[C@H]2C(=O)N[C@@H](Cc2ccc(OCC(=O)O)cc2)C(=O)O)cc1` [Example 56, N-(Toluene-4-sulfonyl)-L-prolyl-4-[(carboxy)methoxy]-L-phenylalanine] came in with a melting point of 70 to 73 °C. As to `Cc1ccc(S(=O)(=O)N2CCC[C@H]2C(=O)N[C@@H](Cc2ccc(OCC(N)=O)cc2)C(=O)O)cc1` [Example 58, N-(Toluene-4-sulfonyl)-L-prolyl-4-[(aminocarbonyl)methoxy]-L-phenylalanine] (Tos-Pro-Tyr(Cam)-OH), the melting point lay in the range of 195 to 196 °C. Turning to `Cc1ccc(S(=O)(=O)N2CCC[C@H]2C(=O)N[C@@H](Cc2ccc(OCC(=O)NC(C)(C)C)cc2)C(=O)O)cc1` [Example 59, N-(Toluene-4-sulfonyl)-L-prolyl-4-[(N-tert-butylaminocarbonyl)methoxy]-L-phenylalanine], the melting point is 88 to 89 °C. For “N-(Toluene-4-sulfonyl)-L-(5,5-dimethyl)thiaprolyl-4-[2-(N,N-dimethylamino)ethoxy]-L-phenylalanine [Example 20]”, in data set [1], the “active in EAE model (delayed the onset of symptoms, e.g., clinical scores no greater than 2 or slowed body weight loss as compared to the control)” value is “active”.

The values are drawn from patent publication US6492421B1, “Substituted phenylalanine type compounds which inhibit leukocyte adhesion mediated by VLA-4” (Athena Neurosciences, Inc., priority 1997, dated 2002).
